Test results from the NIST ThermoML archive (doi:10.1021/je100734t).
Values joined by “and” are separate entries in the source; they are usually repeats but may differ in a detail not shown here. Equal values may be shown once.

What was measured:
[1] = 101 kPa, Liquid; for speed of sound: Pulse-echo method
[2] = xn = mol fraction of the nth substance listed; conditions: 101 kPa, Liquid; for speed of sound: Pulse-echo method

CCCCCCCCCO [nonan-1-ol]
[1]
Conditions	mass density [kg/m3]	speed of sound [m/s]
293.15 K	827.7	1381
303.15 K	820.82	1347
313.15 K	813.88	1314

CCCCCCCCCCO [decan-1-ol] + Cc1cccc(C)c1
[2], x2 = 0
Conditions	mass density [kg/m3]	speed of sound [m/s]
293.15 K	829.98	1396
303.15 K	823.1	1362
313.15 K	816.27	1329

CCc1ccccc1 [ethylbenzene] + CCCCCCCCCO
[2], x1 = 1
Conditions	mass density [kg/m3]	speed of sound [m/s]
293.15 K	867.14	1340
303.15 K	858.37	1298
313.15 K	849.55	1257

Cc1ccc(C)cc1 [1,4-dimethylbenzene]
[1]
Conditions	mass density [kg/m3]	speed of sound [m/s]
293.15 K	860.96	1330
303.15 K	852.25	1289
313.15 K	843.51	1249

Cc1ccccc1C [1,2-dimethylbenzene] + CCCCCCCCCO
[2], x1 = 1
Conditions	mass density [kg/m3]	speed of sound [m/s]
293.15 K	879.49	1369
303.15 K	871.14	1328
313.15 K	862.59	1289

CCc1ccccc1 [ethylbenzene]
[1]
Conditions	mass density [kg/m3]	speed of sound [m/s]
293.15 K	867.14	1340
303.15 K	858.37	1298
313.15 K	849.55	1257

Cc1ccc(C)cc1 [1,4-dimethylbenzene] + CCCCCCCCCO
[2], x1 = 1
Conditions	mass density [kg/m3]	speed of sound [m/s]
293.15 K	860.96	1330
303.15 K	852.25	1289
313.15 K	843.51	1249

Cc1cccc(C)c1 [1,3-dimethylbenzene] + CCCCCCCCCO
[2], x1 = 1
Conditions	mass density [kg/m3]	speed of sound [m/s]
293.15 K	864.18	1341
303.15 K	855.56	1300
313.15 K	846.9	1259

CCCCCCCCCCO [decan-1-ol]
[1]
Conditions	mass density [kg/m3]	speed of sound [m/s]
293.15 K	829.98	1396
303.15 K	823.1	1362
313.15 K	816.27	1329

CCc1ccccc1 [ethylbenzene] + CCCCCCCCCCO
[2], x1 = 1
Conditions	mass density [kg/m3]	speed of sound [m/s]
293.15 K	867.14	1340
303.15 K	858.37	1298
313.15 K	849.55	1257

Cc1ccccc1C [1,2-dimethylbenzene]
[1]
Conditions	mass density [kg/m3]	speed of sound [m/s]
293.15 K	879.49	1369
303.15 K	871.14	1328
313.15 K	862.59	1289

Cc1ccc(C)cc1 [1,4-dimethylbenzene] + CCCCCCCCCCO
[2], x1 = 1
Conditions	mass density [kg/m3]	speed of sound [m/s]
293.15 K	860.96	1330
303.15 K	852.25	1289
313.15 K	843.51	1249

Cc1cccc(C)c1 [1,3-dimethylbenzene]
[1]
Conditions	mass density [kg/m3]	speed of sound
293.15 K	864.18	1341 m/s and 1340 m/s
303.15 K	855.56	1300 m/s
313.15 K	846.9	1259 m/s

Cc1ccccc1C [1,2-dimethylbenzene] + CCCCCCCCCCO
[2], x1 = 1
Conditions	mass density [kg/m3]	speed of sound [m/s]
293.15 K	879.49	1369
303.15 K	871.14	1328
313.15 K	862.59	1289
